Experimental findings from US20180105881A1, “METHOD FOR DETERMINING THE SURVIVAL PROGNOSIS OF A PATIENT SUFFERING FROM PANCREATIC CANCER” (ACOBIOM, priority 2014, published 2018) are described below.

This assay concerns pancreatic cancer. Kind of assay: Overall survival of pancreatic cancer patients treated with gemcitabine (reference population, blood taken before treatment). The format is in vivo, Homo sapiens. To be noted: patients treated with gemcitabine who have the genetic pro-metastatic fingerprint. How it is done: Samples of whole blood from 61 patients, taken before treatment, packaged in PAXgene tubes in dry ice (supplier: LabConnect, United States) were received and stored at −80° C. They were designated “week 0”.
The RNA samples were divided into 2 groups: • M4: corresponding to the patients who received gemcitabine after collection of the reference blood samples, and who died before month 4; • M15: corresponding to the patients who received gemcitabine after collection of the reference blood samples, and were alive after month 15.
An additional pharmacogenomic study was also carried out. Samples of the RNA from blood from 61 patients were taken before any treatment, and they were analysed by RT-PCR.
The patients treated with gemcitabine who have the genetic pro-metastatic fingerprint have a low overall survival rate (OS) (5.0 months).

`Nc1ccn([C@@H]2O[C@H](CO)[C@@H](O)C2(F)F)c(=O)n1` [Gemcitabine] registered an overall survival time of 5.0 months.
